These results are taken from patent publication US9078928B2, “Conjugated molecules comprising a peptide derived from the CD4 receptor coupled to a polyanionic polypeptide for the treatment of AIDS” (Institut Pasteur, priority 2011, dated 2015).

Holding throughout (format): cell-based
Experiment [1] concerns R5-tropic HIV-1/Ba-L. In words: Antiviral assay in PHA-P-activated PBMC, RT activity in supernatant at day 7 (Example 3). The following applies: mean of triplicate; for ED70 VIH-1/Ba-L(R5) Average: effective dose to inhibit 70% of HIV-1 replication; for ED90 VIH-1/Ba-L(R5) Average: effective dose to inhibit 90% of HIV-1 replication. The procedure: Briefly, the X4-tropic HIV-1-LAI (Barre-Sinoussi, Science 220, 868-71, 1983) or the R5-tropic HIV-1/Ba-L (Gartner et al, Science 233, 215-9, 1986) strains were amplified and titrated in vitro on Phytohemaglutinin-P (PHA-P)-activated peripheral blood mononuclear cells (PBMC). Tissue culture infectious doses were calculated using Kärber's formula (Kärber, Arch. Exp. Path. Pharmak. 162, 480-483, 1931). […] Drugs were maintained throughout the culture, and cell supernatants were collected at day 7 post-infection and stored at −20° C. Azidothymidine (AZT) was used in these experiments as an internal control. Viral replication was measured by quantifying reverse transcriptase (RT) activity in cell culture supernatants using the RetroSys HIV RT kit (Innovagen). In parallel, cytotoxicity of the samples was evaluated in uninfected PHA-P-activated PBMC by a methyltetrazolium salt (MTT) assay on day 7. Experiments were performed in triplicate and 50, 70 and 90% effective doses and cytotoxic doses were calculated using SoftMaxPro software.
Molecules and viruses were maintained throughout the culture, and cell supernatants were collected at day 7 post-infection from which reverse transcriptase activity was quantified. Experiments were performed in triplicate and 50, 70 and 90% effective doses (ED), in nM (±S.D.) were calculated using SoftMaxPro software.

For experiment [2], the system named is X4-tropic HIV-1-LAI. The description is as above. The following applies: mean of triplicate; for ED70 VIH-1-LAI(X4) Average: effective dose to inhibit 70% of HIV-1 replication; for ED90 VIH-1-LAI(X4) Average: effective dose to inhibit 90% of HIV-1 replication. The procedure: The antiviral experiment have been performed as described in WO/2009/098147 and Nature Chemical Biology, 2009, 5(10), 743-748.
Briefly, the X4-tropic HIV-1-LAI (Barre-Sinoussi, Science 220, 868-71, 1983) or the R5-tropic HIV-1/Ba-L (Gartner et al, Science 233, 215-9, 1986) strains were amplified and titrated in vitro on Phytohemaglutinin-P (PHA-P)-activated peripheral blood mononuclear cells (PBMC). Tissue culture infectious doses were calculated using Kärber's formula (Kärber, Arch. Exp. Path. Pharmak. 162, 480-483, 1931). For the antiviral assay, PHA-P-activated PBMC were pre-treated for 30 minutes with six concentrations of each drug (1:5 dilutions between 0.5 μM and 160 pM) and infected with one hundred 50% tissue culture infectious doses (TCID50) of either the X4-tropic LAI or R5-tropic Ba-L strain. Drugs were maintained throughout the culture, and cell supernatants were collected at day 7 post-infection and stored at −20° C. Azidothymidine (AZT) was used in these experiments as an internal control. Viral replication was measured by quantifying reverse transcriptase (RT) activity in cell culture supernatants using the RetroSys HIV RT kit (Innovagen). In parallel, cytotoxicity of the samples was evaluated in uninfected PHA-P-activated PBMC by a methyltetrazolium salt (MTT) assay on day 7. Experiments were performed in triplicate and 50, 70 and 90% effective doses and cytotoxic doses were calculated using SoftMaxPro software.
PHA-P-activated PBMC were treated with each of the drug under investigation (1:5 dilutions between 0.5 μM and […]) and infected with 100 TCID50 of either HIV-1-LAI (X4 tropic) or /Ba-L (R5 tropic) strain. Molecules and viruses were maintained throughout the culture, and cell supernatants were collected at day 7 post-infection from which reverse transcriptase activity was quantified. Experiments were performed in triplicate and 50, 70 and 90% effective doses (ED), in nM (±S.D.) were calculated using SoftMaxPro software.

Experiment [3] has as its system clinical HIV-1 isolates. Kind of experiment: Antiviral assay on the series of clinical HIV-1 isolates, summary in text (Example 4). The following applies: primary strains of Table 5. The text has this:
The antiviral assay was extended to a series of more clinically relevant primary strains, including 92UG029, SF162, 92US723, 96USHIPS4, 92HT599 and 98IN017.
Phytohemagglutinin (PHA)-P-activated PBMCs were infected either with the reference lymphotropic HIV-1/LAI strain (Barre-Sinoussi, et al., 1983) or with the reference macrophage-tropic HIV-1/Ba-L strain (Gartner, et al., 1986). These viruses were amplified in vitro with PHA-P-activated blood mononuclear cells. Viral stocks (including clinical isolates) were titrated using PHA-P-activated PBMCs, and 50% tissue culture infectious doses (TCID50) were calculated using Kärber's formula (Kärber, 1931). Viruses (125 TCID50) were incubated for 30 min with five concentrations (1:5 dilutions between 500 nM and 320 pM) of each of the molecules to be tested and added to 150 000 PBMCs (m.o.i.˜0.001). […] Viral replication was measured by quantifying reverse transcriptase (RT) activity in the cell culture supernatants using the Lenti RT Activity Kit (Cavisi) and AZT was used as reference anti-HIV-1 molecule. In parallel, cytotoxicity was evaluated on day 7 in uninfected PHA-P-activated PBMC using a colorimetric methyl-tetrazolium salt (MTS/PMS) assay (Promega). Experiments were performed in triplicate and 50, 70 and 90% effective doses (ED) were calculated using SoftMaxPro software.

A value given as a limit tells only on which side of the number the result lay.

Take “NH2-(CH2)3-CO-S-Asu-D-Asu-S-Asu-D-Asu-F-Asu-F-D-Asu-S [P3Asu]”: in experiment [1], the “ED70 VIH-1/Ba-L(R5) Average” value is listed as over 500 nM and the “ED90 VIH-1/Ba-L(R5) Average” value is listed as over 500 nM. In experiment [2], the “ED70 VIH-1-LAI(X4) Average” value is over 500 nM and the “ED90 VIH-1-LAI(X4) Average” value is on record as over 500 nM.
Regarding “NH2-(CH2)3-CO-S-YSO3-D-YSO3-S-YSO3-D-YSO3-S-YSO3-D-YS03-S (SXDXSXDXSXDXS; non-natural residues) [P3YSO3]”, the “antiviral activity against clinical isolates (in words)” value in experiment [3] was “only poorly active or inactive”.
Regarding “NH2-(CH2)3-CO-S-pF-D-pF-S-pF-D-pF-S-pF-D-pF-S [P3pF]”, in experiment [1], the “ED70 VIH-1/Ba-L(R5) Average” value is listed as over 500 nM and the “ED90 VIH-1/Ba-L(R5) Average” value is listed as over 500 nM. For the same substance, in experiment [2], the “ED70 VIH-1-LAI(X4) Average” value is over 500 nM and the “ED90 VIH-1-LAI(X4) Average” value is recorded as over 500 nM.
